Test results: ChEMBL document CHEMBL5338752, “Carbamate JNK3 Inhibitors Show Promise as Effective Treatments for Alzheimer's Disease: In Vivo Studies on Mouse Models” (J Med Chem, 2023)
The source made the active and inactive calls. The calls are words filed in the database; no cut-off is given here.

Tests used:
[1] = molecular target: Mitogen-activated protein kinase 10 (Rattus norvegicus) (UniProt P49187); test: Inhibition of anisomycin induced JNK3 activation in rat cortex neuron cells assessed as inhibition of APP phosphorylation at 10 to 20 uM preincubated for 90 mins followed by anisomycin addition and measured after 40 mins by Western blot analysis; type: cell-based; conditions: dose 10-20 µM
[2] = test system: Mus musculus; test: Anti-alzheimer activity against triple transgenic mouse alzheimer disease model assessed as time spent in target zone at 30 mg/kg, po administered daily for 2.2 months and measured after 137 days by Morris water maze test (reference value: 4.48+/-1.63 sec); type: functional; conditions: time 137 day
[3] = molecular target: Mitogen-activated protein kinase 10 (Homo sapiens, UniProt P53779); test: Inhibition of JNK3 (unknown origin) at 1.0 uM preincubated for 20 mins followed by 33P-ATP addition and measured after 2 hrs by P81 filter binding method relative to control; conditions: time 140.0 min
[4] = test system: Neuron; test: Inhibition of anisomycin induced JNK activation in rat cortex neuron cells assessed as fold reduction in Jun phosphorylation levels at 10 to 20 uM preincubated for 90 mins followed by anisomycin addition and measured after 40 mins by Western blot analysis; type: cell-based; conditions: dose 10-20 µM, time 130.0 min
[5] = test system: Mus musculus; test: Anti-alzheimer activity against APP/PS1 dE9 double transgenic mouse model assessed as time spent in platform quadrant at 60 mg/kg, po administered daily for 2 months and measured after 74 days by Morris water maze test (reference value: 10.50+/-4.15 sec); type: functional; conditions: time 74 day
[6] = AUClast in sixteen hrs fasted Sprague-Dawley rat at 3 mg/kg, po measured upto 24 hrs by LC-MS/MS analysis; type: ADME, organism-based; parameters: dose 3 mg/kg, time < 24 hrs, route po; conditions: in vivo
[7] = test system: Mus musculus; test: Anti-alzheimer activity against APP/PS1 dE9 double transgenic mouse model assessed as escape latency time at 60 mg/kg, po administered daily for 2 months and measured after 60 days by Passive avoidance test (reference value: 28.6+/-4.3 sec); type: functional; conditions: time 60 day
[8] = molecular target: Mitogen-activated protein kinase 8 (Homo sapiens, UniProt P45983); test: Inhibition of JNK1 (unknown origin) using ATF2 as substrate incubated for 40 mins in presence of [gamma33P]ATP by scintillation counting analysis
[9] = test system: Mus musculus; test: Anti-alzheimer activity against triple transgenic mouse alzheimer disease model assessed as latency time at 30 mg/kg, po administered daily for 2.2 months and measured after 122 to 123 days by passive avoidance test (reference value: 31.3+/-6.9 sec); type: functional; conditions: time 122-123 day
[10] = molecular target: T1, Mitogen-activated protein kinase 9 (Homo sapiens, UniProt P45984); test: Inhibition of JNK2 (unknown origin) using ATF2 as substrate incubated for 40 mins in presence of [gamma33P]ATP by scintillation counting analysis
Target sequence in this assay (P45984 whole entry): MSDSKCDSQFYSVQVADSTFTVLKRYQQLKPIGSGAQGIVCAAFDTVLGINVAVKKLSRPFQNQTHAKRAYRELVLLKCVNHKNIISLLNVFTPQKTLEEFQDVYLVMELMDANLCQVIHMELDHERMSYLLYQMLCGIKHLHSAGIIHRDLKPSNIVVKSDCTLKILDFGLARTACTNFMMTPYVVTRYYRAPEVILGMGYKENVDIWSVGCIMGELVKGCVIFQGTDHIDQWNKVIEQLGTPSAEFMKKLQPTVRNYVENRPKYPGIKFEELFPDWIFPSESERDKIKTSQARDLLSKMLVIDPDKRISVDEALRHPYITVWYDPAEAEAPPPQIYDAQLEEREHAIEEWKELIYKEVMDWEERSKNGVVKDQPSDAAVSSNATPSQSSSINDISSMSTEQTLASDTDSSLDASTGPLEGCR

[11] = test system: Mus musculus; test: Anti-alzheimer activity against triple transgenic mouse alzheimer disease model assessed as time spent in platform quadrant at 60 mg/kg, po administered daily for 2.2 months and measured after 137 days by Morris water maze test (reference value: 12.26+/-2.34 sec); type: functional; conditions: time 137 day
[12] = test system: Mus musculus; test: Anti-alzheimer activity against triple transgenic mouse alzheimer disease model assessed as escape latency time at 60 mg/kg, po measured upto 5 days by Morris water maze test (reference value: 58.62+/-1.15 sec); type: functional; conditions: time <= 5 day
[13] = Tmax in sixteen hrs fasted Sprague-Dawley rat at 3 mg/kg, po measured upto 24 hrs by LC-MS/MS analysis; type: ADME, organism-based; conditions: in vivo
[14] = test system: Mus musculus; test: Anti-alzheimer activity against triple transgenic mouse alzheimer disease model assessed as spontaneous alteration at 30 mg/kg, po administered daily for 2.2 months and measured after 119 days by Y-maze test (reference value: 45.55+/-2.30%); type: functional; conditions: time 119 day
[15] = test system: Mus musculus; test: Anti-alzheimer activity against APP/PS1 dE9 double transgenic mouse model assessed as time spent in target zone at 60 mg/kg, po administered daily for 2 months and measured after 74 days by Morris water maze test (reference value: 6.76+/-3.20 sec); type: functional; conditions: time 74 day
[16] = Half life in sixteen hrs fasted Sprague-Dawley rat at 3 mg/kg, po measured upto 24 hrs by LC-MS/MS analysis; type: ADME, organism-based; conditions: in vivo
[17] = test system: Mus musculus; test: Anti-alzheimer activity against APP/PS1 dE9 double transgenic mouse model assessed as spontaneous alteration at 60 mg/kg, po administered daily for 2 months and measured after 57 days by Y-maze test (reference value: 40.75+/-2.25%); type: functional; conditions: time 57 day
[18] = Apparent permeability of the compound across basolateral side to apical side in human Caco-2 cells; type: ADME, cell-based
[19] = Apparent permeability of the compound across apical side to basolateral side in human Caco-2 cells; type: ADME, cell-based
[20] = test system: Mus musculus; test: Anti-alzheimer activity against APP/PS1 dE9 double transgenic mouse model assessed as escape latency time at 30 mg/kg, po administered daily for 2 months and measured after 60 days by Passive avoidance test (reference value: 28.6+/-4.3 sec); type: functional; conditions: time 60 day
[21] = test system: Neuron; test: Inhibition of apoptosis in rat cortex neuron cells assessed as prevention of A-beta (1 to 42) induced cleaved caspase-3 formation at 10 to 20 uM measured after 24 hrs by Western blot analysis; type: functional, cell-based; conditions: dose 10-20 µM
[22] = Efflux ratio of apparent permeability across basolateral to apical side to apical to basolateral side in human Caco-2 cells; type: ADME, cell-based
[23] = molecular target: Mitogen-activated protein kinase 10 (Rattus norvegicus) (UniProt P49187); test: Inhibition of anisomycin induced JNK3 activation in rat cortex neuron cells assessed as reduction in Jun phosphorylation levels at 10 to 20 uM preincubated for 90 mins followed by anisomycin addition and measured after 40 mins by Western blot analysis; type: cell-based; conditions: dose 10-20 µM, time 130.0 min
[24] = molecular target: T1, Mitogen-activated protein kinase 9; test: Inhibition of JNK2 (unknown origin) at 1.0 uM preincubated for 20 mins followed by 33P-ATP addition and measured after 2 hrs by P81 filter binding method relative to control; conditions: time 140.0 min
Target sequence in this assay (P45984 whole entry, looked up): as the sequence (P45984 whole entry) above

[25] = test system: Mus musculus; test: Anti-alzheimer activity against triple transgenic mouse alzheimer disease model assessed as path length at 30 mg/kg, po measured upto 5 days by Morris water maze test (reference value: 608.85+/-39.27 cm); type: functional; conditions: time <= 5 day
[26] = molecular target: Mitogen-activated protein kinase 10 (Rattus norvegicus) (UniProt P49187); test: Inhibition of A-beta (1 to 42) induced JNK3 activation in rat cortex neuron cells assessed as reduction in c-Jun phosphorylation levels at 10 to 20 uM incubated for 24 hrs in presence of A-beta (1 to 42) by Western blot analysis; type: cell-based; conditions: dose 10-20 µM
[27] = test system: Mus musculus; test: Anti-alzheimer activity against APP/PS1 dE9 double transgenic mouse model assessed as time spent in platform quadrant at 30 mg/kg, po administered daily for 2 months and measured after 74 days by Morris water maze test (reference value: 10.50+/-4.15 sec); type: functional; conditions: time 74 day
[28] = test system: Mus musculus; test: Anti-alzheimer activity against triple transgenic mouse alzheimer disease model assessed as spontaneous alteration at 60 mg/kg, po administered daily for 2.2 months and measured after 119 days by Y-maze test (reference value: 45.55+/-2.30%); type: functional; conditions: time 119 day
[29] = test system: Neuron; test: Inhibition of apoptosis in rat cortex neuron cells assessed as prevention of A-beta (1 to 42) induced cleaved PARP formation at 10 to 20 uM measured after 24 hrs by Western blot analysis; type: functional, cell-based; conditions: dose 10-20 µM
[30] = molecular target: Mitogen-activated protein kinase 14 (Homo sapiens) (UniProt Q16539); test: Inhibition of p38alpha (unknown origin) at 1.0 uM preincubated for 20 mins followed by 33P-ATP addition and measured after 2 hrs by P81 filter binding method relative to control; conditions: time 140.0 min
Chain of Mitogen-activated protein kinase 14 (Homo sapiens) (Q16539 whole entry): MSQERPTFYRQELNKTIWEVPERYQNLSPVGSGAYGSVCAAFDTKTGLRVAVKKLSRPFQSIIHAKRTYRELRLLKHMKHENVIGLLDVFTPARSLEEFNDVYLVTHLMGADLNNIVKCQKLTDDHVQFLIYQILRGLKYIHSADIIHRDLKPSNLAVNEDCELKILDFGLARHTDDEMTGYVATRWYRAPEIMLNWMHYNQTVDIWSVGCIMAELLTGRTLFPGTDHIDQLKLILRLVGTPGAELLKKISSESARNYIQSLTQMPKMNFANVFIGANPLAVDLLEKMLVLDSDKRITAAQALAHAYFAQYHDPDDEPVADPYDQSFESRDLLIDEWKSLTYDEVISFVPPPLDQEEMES

Chain of Mitogen-activated protein kinase 10 (Rattus norvegicus) (P49187 whole entry): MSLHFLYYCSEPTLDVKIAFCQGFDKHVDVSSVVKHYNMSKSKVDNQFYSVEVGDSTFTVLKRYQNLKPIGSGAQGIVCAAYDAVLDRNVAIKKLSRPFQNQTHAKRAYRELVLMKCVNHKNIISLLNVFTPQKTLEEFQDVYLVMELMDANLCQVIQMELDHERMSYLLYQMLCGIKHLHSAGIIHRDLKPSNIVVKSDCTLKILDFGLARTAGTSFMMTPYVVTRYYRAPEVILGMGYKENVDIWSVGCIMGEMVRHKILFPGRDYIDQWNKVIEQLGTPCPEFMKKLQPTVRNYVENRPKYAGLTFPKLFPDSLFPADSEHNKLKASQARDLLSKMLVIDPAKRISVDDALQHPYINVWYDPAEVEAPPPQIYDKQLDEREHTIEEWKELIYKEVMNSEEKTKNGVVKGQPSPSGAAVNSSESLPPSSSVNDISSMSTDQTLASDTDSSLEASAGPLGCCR
Chain of Mitogen-activated protein kinase 8 (P45983 whole entry): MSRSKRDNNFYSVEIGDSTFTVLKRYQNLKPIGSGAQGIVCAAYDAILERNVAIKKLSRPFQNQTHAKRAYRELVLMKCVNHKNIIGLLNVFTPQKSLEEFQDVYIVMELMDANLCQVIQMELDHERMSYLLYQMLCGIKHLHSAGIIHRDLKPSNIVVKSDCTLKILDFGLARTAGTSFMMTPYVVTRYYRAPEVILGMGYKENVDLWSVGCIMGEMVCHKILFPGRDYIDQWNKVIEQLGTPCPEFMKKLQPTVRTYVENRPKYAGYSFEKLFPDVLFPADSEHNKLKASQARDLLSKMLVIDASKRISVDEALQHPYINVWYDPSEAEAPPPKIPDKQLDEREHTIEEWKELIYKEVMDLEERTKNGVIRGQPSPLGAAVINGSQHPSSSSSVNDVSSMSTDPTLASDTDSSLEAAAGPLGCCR
Chain of Mitogen-activated protein kinase 10 (P53779 whole entry): as the sequence (P49187 whole entry) above, with H27Q, S32Y, V33I, V34A counted along it

## CNC(=O)Oc1cc(F)c2nc(-c3ccc4ccccc4c3)n(-c3ccnc(N[C@H]4CCCN(C(=O)C5CC5)C4)n3)c2c1
[1]
  inhibition: Active
[2]
  Time: 17.1 s
[3]
  inhibition: 100%
[4]
  fold change (FC): 2
[5]
  Time: 21.78 s
[6]
  AUC(0-t) at 24 h: 727 ng·h/mL
[7]
  Time: 46.5 s
[8]
  IC50: > 10 µM
[9]
  Time: 31.6 s
[10]
  IC50: 2.2 µM
[11]
  Time: 22.59 s
[12]
  Time: 25.72 s
[13]
  Tmax: 23.4 min
[14]
  Activity: 49.78%
[15]
  Time: 16.27 s
[16]
  half-life: 58.2 min
[17]
  Activity: 54.23%
[18]
  Papp B→A: 25.2 ×10⁻⁶ cm/s
[19]
  Papp A→B: 1.7 ×10⁻⁶ cm/s
[20]
  Time: 44.2 s
[21]
  inhibition: Active
[22]
  efflux ratio: 14.7
[23]
  inhibition: Active
[24]
  inhibition: 20%
[25]
  Activity: 402.59 cm
[26]
  inhibition: Active
[27]
  Time: 16.44 s
[28]
  Activity: 54.62%
[29]
  inhibition: Active
[30]
  inhibition: 20%
